Laboratory results published in patent publication US10544149B2, “Bicyclic alkyne derivatives and uses thereof” (Agency for Science, Technology and Research, priority 2013, dated 2020).

What was measured:
[1] = tested on: TNF production by macrophage; conditions: TLR agonist stimulation, dose dependant; cited from earlier work
[2] = tested on: eIF4e phosphorylation in Hela cell line; assay: eIF4e phosphorylation inhibition in Hela cell line; format: cell-based; conditions: Homo sapiens, cellular
MNK1 = MNK1 (Homo sapiens, UniProt Q9BUB5); assay: MNK1 enzymatic assay; format: biochemical
Chain of MNK1 (Q9BUB5 whole entry): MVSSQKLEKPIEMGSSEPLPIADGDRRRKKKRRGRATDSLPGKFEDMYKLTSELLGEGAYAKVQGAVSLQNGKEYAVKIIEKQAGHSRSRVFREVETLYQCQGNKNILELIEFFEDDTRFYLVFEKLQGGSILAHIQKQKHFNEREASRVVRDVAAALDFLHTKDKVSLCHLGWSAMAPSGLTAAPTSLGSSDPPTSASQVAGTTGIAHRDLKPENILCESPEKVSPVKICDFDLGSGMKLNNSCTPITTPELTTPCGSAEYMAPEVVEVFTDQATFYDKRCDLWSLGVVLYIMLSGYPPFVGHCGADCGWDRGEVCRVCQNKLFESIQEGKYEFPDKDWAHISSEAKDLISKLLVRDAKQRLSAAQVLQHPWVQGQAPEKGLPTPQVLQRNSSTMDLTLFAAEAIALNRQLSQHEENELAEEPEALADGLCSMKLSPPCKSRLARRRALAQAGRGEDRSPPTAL

MNK2 = MNK2 (Homo sapiens, UniProt Q9HBH9); assay: MNK2 enzymatic assay; format: biochemical
Chain of MNK2 (Q9HBH9 whole entry): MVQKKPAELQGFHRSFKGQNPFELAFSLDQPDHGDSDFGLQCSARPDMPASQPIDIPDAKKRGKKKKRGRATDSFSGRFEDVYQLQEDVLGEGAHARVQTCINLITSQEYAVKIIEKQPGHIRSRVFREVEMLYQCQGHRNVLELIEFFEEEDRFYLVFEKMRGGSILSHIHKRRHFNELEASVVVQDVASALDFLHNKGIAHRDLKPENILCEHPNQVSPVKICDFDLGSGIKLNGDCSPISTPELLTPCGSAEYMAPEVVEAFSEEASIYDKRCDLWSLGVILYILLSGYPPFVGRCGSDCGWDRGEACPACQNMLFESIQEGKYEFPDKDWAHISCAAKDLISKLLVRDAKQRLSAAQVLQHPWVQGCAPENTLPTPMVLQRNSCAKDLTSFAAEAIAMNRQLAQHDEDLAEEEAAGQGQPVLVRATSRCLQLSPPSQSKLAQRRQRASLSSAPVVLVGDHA

Structure (SMILES)	production / release of TNF [1]	melting point [°C]	IC50 [2] [µM]	IC50 (MNK1) [µM]	IC50 (MNK2) [µM]
Nc1ncnc2n[nH]c(Nc3ccc(F)cc3)c12 [CGP57380]	inhibits	–	–	–	–
CC(=O)Nc1cc(C#Cc2cnc3ccc(-c4ccc(C(=O)N5CCN(C)CC5)cc4)nn23)ccn1 [Example 87, N-(4-((6-(4-(4-methylpiperazine-1-carbonyl)phenyl)imidazo[1,2-b]pyridazin-3-yl)ethynyl)pyridin-2-yl)acetamide]	–	216.8 to 217.9	–	–	–
Nc1cc(C#Cc2cnc3cnc(-c4ccc(C(=O)N5CCOCC5)cc4)cn23)ccn1 [Example 88, (4-(3-((2-aminopyridin-4-yl)ethynyl)imidazo[1,2-a]pyrazin-6-yl)phenyl)(morpholino)methanone]	–	143.5 to 144.2	–	–	–
O=C(c1ccc(-c2cn3c(C#Cc4ccnc5[nH]ncc45)cnc3cn2)cc1)N1CCOCC1 [Example 90, (4-(3-((1H-pyrazolo[3,4-b]pyridin-4-yl)ethynyl)imidazo[1,2-a]pyrazin-6-yl)phenyl) (morpholino)methanone]	–	192.8 to 193.8	–	–	–
Nc1cc(C#Cc2cnc3cnc(-c4ccc(C(=O)N5CCOCC5)c(Cl)c4)cn23)ccn1 [Example 93, (4-(3-((2-aminopyridin-4-yl)ethynyl)imidazo[1,2-a]pyrazin-6-yl)-2-chlorophenyl) (morpholino)methanone]	–	119.8 to 121.1	–	–	–
O=C(c1ccc(-c2ccc3ncc(C#Cc4ccncc4)n3c2)cc1)N1CCOCC1 [Example 94, morpholino(4-(3-(pyridin-4-ylethynyl)imidazo[1,2-a]pyridin-6-yl)phenyl)methanone]	–	165 to 166	–	–	–
Cc1cnccc1C#Cc1cnc2ccc(-c3ccc(C(=O)N4CCOCC4)cc3)cn12 [Example 95, (4-(3-((3-methylpyridin-4-yl)ethynyl)imidazo[1,2-a]pyridin-6-yl)phenyl) (morpholino)methanone]	–	99 to 104	–	–	–
Nc1cc(C#Cc2cnc3ccc(-c4ccc(C(=O)N5CCOCC5)cc4)cn23)ccn1 [Example 96, (4-(3-((2-aminopyridin-4-yl)ethynyl)imidazo[1,2-a]pyridin-6-yl)phenyl)(morpholino)methanone]	–	133 to 138	–	–	–
O=C(c1ccc(-c2ccc3ncc(C#Cc4ccncc4)n3c2)cc1)N1CCNCC1 [Example 109, piperazin-1-yl(4-(3-(pyridin-4-ylethynyl)imidazo[1,2-a]pyridin-6-yl)phenyl)methanone]	–	125 to 130	< 5	< 0.5	< 0.5
O=C(c1ccc(-c2ccc3ncc(C#Cc4ccnc5[nH]ccc45)n3c2)cc1)N1CCNCC1 [Example 110, (4-(3-((1H-pyrrolo[2,3-b]pyridin-4-yl)ethynyl)imidazo[1,2-a]pyridin-6-yl)phenyl)(piperazin-1-yl)methanone]	–	242 to 245	< 5	< 0.5	< 0.5
O=C(c1ccc(-c2ccn3ncc(C#Cc4ccncc4)c3n2)cc1)N1CCOCC1 [Example 114, morpholino(4-(3-(pyridin-4-ylethynyl)pyrazolo[1,5-a]pyrimidin-5-yl)phenyl)methanone]	–	206 to 209	< 5	< 0.5	< 0.5
O=C(c1ccc(-c2ccn3ncc(C#Cc4ccncc4)c3n2)cc1)N1CCNCC1 [Example 115, piperazin-1-yl(4-(3-(pyridin-4-ylethynyl)pyrazolo[1,5-a]pyrimidin-5-yl)phenyl)methanone]	–	120 to 136	< 5	< 0.5	< 0.5
Cc1cnccc1C#Cc1cnn2ccc(-c3ccc(C(=O)N4CCOCC4)cc3)nc12 [Example 116, (4-(3-((3-methylpyridin-4-yl)ethynyl)pyrazolo[1,5-a]pyrimidin-5-yl)phenyl)(morpholino)methanone]	–	233 to 236	< 5	< 0.5	< 0.5
Nc1cc(C#Cc2cnn3ccc(-c4ccc(C(=O)N5CCOCC5)cc4)nc23)ccn1 [Example 117, (4-(3-((2-aminopyridin-4-yl)ethynyl)pyrazolo[1,5-a]pyrimidin-5 yl)phenyl)(morpholino)methanone]	–	129.8 to 130.6	–	–	–
Nc1ncc(C#Cc2cnc3ccc(-c4ccc(C(=O)N5CCOCC5)cc4)nn23)s1 [Example 121, (4-(3-((2-aminothiazol-5-yl)ethynyl)imidazo[1,2-b]pyridazin-6-yl)phenyl) (morpholino)methanone]	–	245 to 254	< 5	< 0.5	< 0.5
